Legend:
Aromatase [1] = biological target: T1, Aromatase (Homo sapiens, UniProt P11511); conditions: 0.25 µM
T1 sequence (P11511 whole entry): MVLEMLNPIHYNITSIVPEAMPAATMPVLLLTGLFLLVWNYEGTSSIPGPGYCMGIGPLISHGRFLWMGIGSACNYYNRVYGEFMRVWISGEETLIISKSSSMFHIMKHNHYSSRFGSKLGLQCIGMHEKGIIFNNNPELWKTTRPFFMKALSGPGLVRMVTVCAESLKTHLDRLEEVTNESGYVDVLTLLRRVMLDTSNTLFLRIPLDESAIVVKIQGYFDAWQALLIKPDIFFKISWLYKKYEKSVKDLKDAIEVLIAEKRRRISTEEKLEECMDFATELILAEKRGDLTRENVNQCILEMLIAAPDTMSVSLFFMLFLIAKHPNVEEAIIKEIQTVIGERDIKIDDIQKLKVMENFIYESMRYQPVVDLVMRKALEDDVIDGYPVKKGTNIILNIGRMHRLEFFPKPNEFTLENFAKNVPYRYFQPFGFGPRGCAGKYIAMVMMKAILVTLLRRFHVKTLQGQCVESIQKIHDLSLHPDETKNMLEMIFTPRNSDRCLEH
Description: (§1) Inhibition of Cytochrome P450 19A1 at the concentration of 0.25 uM

Aromatase [2] = biological target: T1, Aromatase; conditions: 1.5 µM
Description: (§2) Inhibition of Cytochrome P450 19A1 at the concentration of 1.5 uM

Aromatase [3] = biological target: T1, Aromatase; conditions: 0.75 µM
Description: (§3) Inhibition of Cytochrome P450 19A1 at the concentration of 0.75 uM

Aromatase [4] = biological target: T1, Aromatase
Description: as §1

Aromatase [5] = biological target: T1, Aromatase; remark: listed apart in the source
Description: as §2

Aromatase [6] = biological target: T1, Aromatase; remark: listed apart in the source
Description: as §3

Aromatase [7] = biological target: T1, Aromatase; test: Evaluated for its competitive inhibitory activity against Cytochrome P450 19A1 with the use of human placental microsomal preparation; design: species or system Placenta; conditions: read-out: Ki app

Compound	Inhibition (Aromatase [1]) [%]	Inhibition (Aromatase [2]) [%]	Inhibition (Aromatase [3]) [%]	inhibition at 0.25 µM (Aromatase [4]) [%]	inhibition at 1.5 µM (Aromatase [5]) [%]	inhibition at 0.75 µM (Aromatase [6]) [%]	Ki (Aromatase [7]) [nM]
CC12CCC3C(CCC4=C(Sc5ccc(N)cc5)C(=O)CCC43C)C1CCC2=O (stereo in doubt; 14)	0	0	0	–	–	–	–
Cc1ccc(SC2=C3CCC4C5CCC(=O)C5(C)CCC4C3(C)CCC2=O)cc1 (stereo not drawn)	–	–	–	14	31	27	–
CC12CCC3C(CCC4=C(Sc5ccc([N+](=O)[O-])cc5)C(=O)CCC43C)C1CCC2=O (stereo not drawn)	–	–	–	0	0	0	–
CC12CCC3C(CCC4=C(Sc5ccc(Br)cc5)C(=O)CCC43C)C1CCC2=O (stereo not drawn)	–	–	–	0	6	4	–
CCCCCSC1=C2CCC3C4CCC(=O)C4(C)CCC3C2(C)CCC1=O (stereo not drawn)	–	–	–	2	8	4	–
CSC1=C2CCC3C4CCC(=O)C4(C)CCC3C2(C)CCC1=O (stereo not drawn)	–	–	–	39	74	61	59
CC12CCC3C(CCC4=C(SCc5ccccc5)C(=O)CCC43C)C1CCC2=O (stereo not drawn)	–	–	–	2	8	5	–
CC12CCC3C(CCC4=C(Sc5ccccc5)C(=O)CCC43C)C1CCC2=O (stereo not drawn)	–	–	–	36	68	55	36
CC(=O)SC1=C2CCC3C4CCC(=O)C4(C)CCC3C2(C)CCC1=O (stereo not drawn)	–	–	–	19	58	42	73
CC12CCC3C(CCC4=C(S)C(=O)CCC43C)C1CCC2=O (stereo not drawn)	–	–	–	31	63	52	–
CC(=O)OC1=C2CCC3C4CCC(=O)C4(C)CCC3C2(C)CCC1=O (stereo not drawn)	–	–	–	38	78	70	–
COc1ccc(SC2=C3CCC4C5CCC(=O)C5(C)CCC4C3(C)CCC2=O)cc1 (stereo not drawn)	–	–	–	0	2	0	–
CC12CCC3C(CCC4=C(Sc5ccc(N)cc5)C(=O)CCC43C)C1CCC2=O (stereo in doubt)	46	82	70	–	–	–	18
C[C@]12CCC(=O)C(O)=C1CC[C@@H]1[C@@H]2CC[C@]2(C)C(=O)CC[C@@H]12 [FORMESTANE]	–	–	–	49	84	74	54
CCSC1=C2CCC3C4CCC(=O)C4(C)CCC3C2(C)CCC1=O (stereo not drawn)	–	–	–	26	52	45	41
CCCCSC1=C2CCC3C4CCC(=O)C4(C)CCC3C2(C)CCC1=O (stereo not drawn)	–	–	–	8	18	12	–
CCCSC1=C2CCC3C4CCC(=O)C4(C)CCC3C2(C)CCC1=O (stereo not drawn)	–	–	–	25	49	42	65
